Measurements as given in US10611732B2, “HIV replication inhibiting pyrimidines” (Janssen Pharmaceutica NV, priority 2001, dated 2020).
Where two headings read alike, the source gives them in different places.

How the values were obtained:
mock-infected MT-4 cells = experiment: cytotoxicity in mock-infected MT-4 cells (MTT)
Protocol: (§1) A rapid, sensitive and automated assay procedure was used for the in vitro evaluation of anti-HIV agents. An […] T4-cell line, MT-4, which was previously shown (Koyanagi et al., Int. J Cancer, 36, 445-451, 1985) to be highly susceptible to and permissive for HIV infection, served as the target cell line. Inhibition of the HIV-induced cytopathic effect was used as the end point. The viability of both HIV- and mock-infected cells was assessed spectrophotometrically via the in situ reduction of 3-(4,5-dimethylthiazol-2-yl)-2,5-diphenyltetrazolium bromide (MTT). The 50% cytotoxic concentration (CC50 in M) was defined as the concentration of compound that reduced the absorbance of the mock-infected control sample by 50%. The percent protection achieved by the compound in HIV-infected cells was calculated by the following formula:
(§2) [formula] whereby (ODT)HIV is the optical density measured with a given concentration of the test compound in HIV-infected cells; (ODC)HIV is the optical density measured for the control untreated HIV-infected cells; (ODC)MOCK is the optical density measured for the control untreated mock-infected cells; all optical density values were determined at 540 nm. The dose achieving 50% protection according to the above formula was defined as the 50% inhibitory concentration (IC50 in M). The ratio of CC50 to IC50 was defined as the selectivity index (SI).
(§3) Table 6 lists the pIC50 (−log IC50), pCC50 (−log CC50) and pSI (pCC50-pIC50) values for the compounds of formula (I).

HIV = experiment: microbe, parasite or virus in culture; settings: for pIC50 (−log IC50): HIV-infected MT-4 cells; for pIC50 (−log IC50) / IC50: dose achieving 50% protection, MTT, OD 540 nm; for pSI (pCC50-pIC50): selectivity index, ratio of CC50 to IC50, as log difference; for IC50: Human immunodeficiency virus 1, MT4, read-out: pIC50 (−log IC50), HIV-infected MT-4 cells (converted)
Protocol: as §1, §2, §3

Structure (SMILES) | pCC50 (−log CC50) (mock-infected MT-4 cells) | pIC50 (−log IC50) (HIV) | pSI (pCC50-pIC50) (HIV) | IC50 (HIV) | pCC50 (−log CC50) (mock-infected MT-4 cells; mock-infected MT-4 cells, concentration reducing absorbance of control by 50%, MTT)
Cc1cc(CC(C)C#N)cc(C)c1Nc1ccnc(Nc2ccc(C#N)cc2)n1 (centres unmarked) [Compound 153] | 6.3 M | 9.2 | −2.9 |  | 
C/C(C#N)=C/c1cc(C)c(Nc2ccnc(Nc3ccc(C#N)cc3)n2)c(C)c1 [Compound 11] | 5.7 M | 9.2 | −3.5 |  | 
Cc1cc(C(C)CC#N)ccc1Oc1ccnc(Nc2ccc(C#N)cc2)n1 (centres unmarked) [Compound 235] | <4.0 M | 9.3 | <−5.3 |  | 
Cc1cc(/C(=C/C#N)C(C)C)cc(C)c1Nc1ccnc(Nc2ccc(C#N)cc2)n1 [Compound 149] | 5.3 M | 9.1 | −3.8 |  | 
Cc1cc(C=C(C#N)CC#N)cc(C)c1Nc1ccnc(Nc2ccc(C#N)cc2)n1 (mixture of isomers) [Compound 147] | 5.7 M | 9.4 | −3.7 |  | 
C/C(C#N)=C/c1cc(C)c(Oc2ccnc(Nc3ccc(C#N)cc3)n2)c(C)c1 [Compound 178] | 5.7 M | 8.8 | −3.1 |  | 
CCN(C)C(=O)/C=C/c1cc(C)c(Oc2ccnc(Nc3ccc(C#N)cc3)n2)c(C)c1 [Compound 215] | 5.5 M | 9.1 | −3.6 |  | 
CCN(Cc1ccncc1)Cc1cc(C)c(Nc2ccnc(Nc3ccc(C#N)cc3)n2)c(C)c1 [Compound 79] |  |  | −2.7 | 10 nM | 
Cc1cc(/C=C/C#N)cc(C)c1Nc1ccnc(Nc2ccc(C#N)cc2)n1 [Compound 1, 4-[[4-[[4-(2-cyanoethenyl)-2,6-dimethylphenyl]amino]-2-pyrimidinyl]amino]benzonitrile (E)] |  |  | −4.4 | 0.398 nM | 5.0 M
Cc1cc(/C=C/C(=O)N2CCOCC2)cc(C)c1Nc1ccnc(Nc2ccc(C#N)cc2)n1 [Compound 156] |  |  | −2.6 | 20 nM | 
Cc1cc(CN(C)CCC#N)cc(Br)c1Nc1ccnc(Nc2ccc(C#N)cc2)n1 [Compound 241] | 5.3 M | 9.4 | −4.1 |  | 
Cc1cc(CC(C#N)C#N)cc(C)c1Nc1ccnc(Nc2ccc(C#N)cc2)n1 [Compound 144] | 6.4 M | 8.6 | −2.2 |  | 
C/C(C#N)=C/c1cc(C)c(Nc2ccnc(Nc3ccc(C#N)cc3)n2)c(C)c1 [Compound 152] | 4.8 M | 9.1 | −4.3 |  | 
Cc1cc(/C=C/C#N)cc(Cl)c1Nc1ccnc(Nc2ccc(C#N)cc2)n1 [Compound 133] | 4 M | 9.2 | −5.2 |  | 
Cc1cc(/C=C/C(=O)N(C)C2CCN(C)CC2)cc(C)c1Oc1ccnc(Nc2ccc(C#N)cc2)n1 [Compound 210] |  |  | −3.5 | 5.01 nM | 
CC(=CC#N)c1cc(C)c(Oc2ccnc(Nc3ccc(C#N)cc3)n2)c(C)c1 [Compound 213] | 4.8 M | 9 | −4.2 |  | 
Cc1cc(CCC#N)cc(C)c1Nc1ccnc(Nc2ccc(C#N)cc2)n1 [Compound 24] |  |  | −3.4 | 0.794 nM | 
CC(C#N)=Cc1cc(C)c(Nc2ccnc(Nc3ccc(C#N)cc3)n2)c(Br)c1 [Compound 247] | 6.2 M | 9.2 | −3 |  | 
Cc1cc(/C=C/C(=O)N(C)CC#N)cc(C)c1Oc1ccnc(Nc2ccc(C#N)cc2)n1 [Compound 212] | 5 M | 9.1 | −4.1 |  | 
Cc1cc(/C(=C\C#N)C(C)C)cc(C)c1Nc1ccnc(Nc2ccc(C#N)cc2)n1 [Compound 150] | 4.8 M | 8.8 | −4.0 |  | 
CC(=CC#N)c1ccc(Oc2ccnc(Nc3ccc(C#N)cc3)n2)c(C)c1 [Compound 232] | <4.0 M | 8.4 | <−4.4 |  | 

Structure (SMILES) | pCC50 (−log CC50) (mock-infected MT-4 cells) | pIC50 (−log IC50) (HIV) | pSI (pCC50-pIC50) (HIV) | IC50 (HIV) | pCC50 (−log CC50) (mock-infected MT-4 cells; mock-infected MT-4 cells, concentration reducing absorbance of control by 50%, MTT)
C/C(C#N)=C/c1cc(C)c(Nc2ccnc(Nc3ccc(C#N)cc3)n2)c(C)c1 [Compound 151] | 5.5 M | 9.1 | −3.6 |  | 
Cc1cc(CC(C)C#N)ccc1Oc1ccnc(Nc2ccc(C#N)cc2)n1 (centres unmarked) [Compound 236] | <4.0 M | 8.8 | <−4.8 |  | 
CC(C#N)=Cc1ccc(Oc2ccnc(Nc3ccc(C#N)cc3)n2)c(C)c1 [Compound 231] | <4.0 M | 9.2 | <−5.2 |  | 
Cc1cc(-c2ccco2)cc(C)c1Nc1ccnc(Nc2ccc(C#N)cc2)n1 [Compound 3] |  |  | −2.9 | 3.98 nM | 
CC/C(=C\C#N)c1cc(C)c(Nc2ccnc(Nc3ccc(C#N)cc3)n2)c(C)c1 [Compound 148] | 4.9 M | 8.8 | −3.9 |  | 
COc1cc(C=C(C)C#N)ccc1Nc1ccnc(Nc2ccc(C#N)cc2)n1 [Compound 249] | 4 M | 8.5 | −4.5 |  | 
Cc1cc(/C(Cl)=C\C#N)cc(C)c1Nc1ccnc(Nc2ccc(C#N)cc2)n1 [Compound 124] |  |  | −3.8 | 3.16 nM | 
CO/N=C(\c1cc(C)c(Nc2ccnc(Nc3ccc(C#N)cc3)n2)c(C)c1)C(C)C [Compound 9] |  |  | −4 | 1.58 nM | 
Cc1cc(C=CC#N)cc(C)c1Oc1ccnc(Nc2ccc(C#N)cc2)n1 [Compound 25] |  | 9 | −5 |  | 
Cc1cc(-n2cccc2)cc(C)c1Oc1ccnc(Nc2ccc(C#N)cc2)n1 [Compound 118] |  |  | <−4.1 | 3.98 nM | 
Cc1cc(/C=C/C(=O)N2CCN(C)CC2)cc(C)c1Nc1ccnc(Nc2ccc(C#N)cc2)n1 [Compound 155] |  |  | −2.5 | 1.58 nM | 
Cc1cc(/C=C/C(=O)N2CCOCC2)cc(C)c1Oc1ccnc(Nc2ccc(C#N)cc2)n1 [Compound 216] |  |  | −3.6 | 6.31 nM | 
Cc1cc(/C=C/c2cccnc2)cc(C)c1Nc1ccnc(Nc2ccc(C#N)cc2)n1 [Compound 145] |  |  | −3.4 | 2 nM | 
Cc1cc(CN2CCSC2)cc(C)c1Nc1ccnc(Nc2ccc(C#N)cc2)n1 [Compound 78] |  |  | −3.5 | 3.98 nM | 
Cc1cc(Cn2ccnc2)cc(C)c1Nc1ccnc(Nc2ccc(C#N)cc2)n1 [Compound 70] |  |  | −3.3 | 7.94 nM | 
Cc1cc(C(O)CC#N)cc(C)c1Nc1ccnc(Nc2ccc(C#N)cc2)n1 (centres unmarked) [Compound 18] |  |  | −4.0 | 1.58 nM | 
CC(=O)c1cccc(-c2cc(C)c(Nc3ccnc(Nc4ccc(C#N)cc4)n3)c(C)c2)c1 [Compound 34] |  |  | −3.2 | 10 nM | 
Cc1cc(-c2ccsc2)cc(C)c1Nc1ccnc(Nc2ccc(C#N)cc2)n1 [Compound 21] |  |  | −3.5 | 3.98 nM | 
Cc1cc(/C=C/C(=O)N2CC=CC2)cc(C)c1Oc1ccnc(Nc2ccc(C#N)cc2)n1 [Compound 209] |  |  | −3.7 | 2.51 nM | 
Cc1cc(/C=C(\C#N)c2cccs2)cc(C)c1Nc1ccnc(Nc2ccc(C#N)cc2)n1 [Compound 49] |  |  | −3.2 | 10 nM | 
